How the values were obtained:
[1] = system: moderate to severe pain due to arthrosis of the knee; experiment: Randomised, placebo-controlled double-blind study, tapentadol PR vs oxycodone HCl CR, 28 days (Example 1); assay type: in vivo, human; conditions: compared with oxycodone
Protocol: The efficacy and tolerability of tapentadol with prolonged release (prolonged release (PR)) and oxycodone HCl with controlled release (controlled release (CR)) were compared with a placebo in patients with moderate to severe pain due to arthrosis of the knee.
Patients (N=670) were randomly selected and treated over 28 days twice with tapentadol PR 100 mg, with tapentadol PR 200 mg, with oxycodone HCl CR 20 mg or with a placebo. The dose was titrated at the start of the treatment. The primary efficacy endpoint was the average perception of pain during the preceding 24 hours at the time of the last medical examination (final visit) based on a visual analog 100-mm sale (VAS, 0 mm=no pain, 100 mm=worst pain imaginable)).
The study consisted of a 14-day, double-blind titration phase (3 days->11 days) followed by a 14-day double-blind maintenance phase (at the highest dose of the titration scheme in each case; see FIG. 1):
tapentadol PR 100 mg: 25 mg (bid)->50 mg (bid)->100 mg (bid);
tapentadol PR 200 mg: 100 mg (bid)->150 mg (bid)->200 mg (bid);
oxycodone HCl CR 20 mg: 10 mg (bid)->10 mg (bid)->20 mg (bid).

pain = experiment: Clinical studies of pain-alleviating action compared with morphine; assay type: in vivo, human
[2] = molecular target: recombinantly produced μ-opioid receptor (Homo sapiens, UniProt P35372); experiment: Affinity to recombinantly produced μ-opioid receptor; assay type: binding; conditions: in humans; relative to morphine
recombinantly produced μ-opioid receptor, sequence (P35372 whole entry): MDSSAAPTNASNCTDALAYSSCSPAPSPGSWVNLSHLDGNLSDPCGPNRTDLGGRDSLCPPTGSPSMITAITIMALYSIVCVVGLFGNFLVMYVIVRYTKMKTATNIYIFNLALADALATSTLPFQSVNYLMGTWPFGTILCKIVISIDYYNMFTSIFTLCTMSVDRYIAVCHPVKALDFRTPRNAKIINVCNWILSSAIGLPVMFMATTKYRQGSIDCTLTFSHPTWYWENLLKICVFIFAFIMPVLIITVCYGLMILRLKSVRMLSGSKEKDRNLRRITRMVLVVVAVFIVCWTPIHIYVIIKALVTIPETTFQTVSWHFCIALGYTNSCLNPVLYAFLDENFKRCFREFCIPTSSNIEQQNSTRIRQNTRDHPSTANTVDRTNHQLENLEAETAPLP

## CC[C@@H](c1cccc(O)c1)[C@@H](C)CN(C)C [tapentadol, (−)-(1R,2R)-3-(3-dimethylamino-1-ethyl-2-methyl-propyl)-phenol]
[1]
  tolerability with respect to gastrointestinal and central nervous system side effects: better tolerated than oxycodone
pain
  pain-alleviating action relative to morphine: two to three times less than that of morphine
[2]
  affinity to the recombinantly produced μ-opioid receptor, times less than that of morphine: 18 times

— patent publication US20120041071A1, “[…] TREATING PAIN DUE TO OSTEOARTHRITIS” (Gruenenthal GmbH, priority 2007, published 2012)
